From patent EP0367033A1, “S-Difluoromethylhomocysteines, preparation process, and insecticidal compositions” (SHIONOGI SEIYAKU KABUSHIKI KAISHA, priority 1988, dated 1990)
Converted amounts (≈) assume the structure as drawn. Read-outs that look alike come from different tables or passages of the source.

Legend:
[1] = tested on: Myzus persicae resistant to malathion and pirimicarb; assay: Foliar spray test on larvae of Myzus persicae, strain resistant to malathion and pirimicarb; assay type: in vivo; details: for LC50: read-out: LC₅₀ (ppm) Resistant Strain
Method: (§1) A solution of the compound is diluted with distilled water containing Tween 20® at a concentration of 100 ppm to prepare a predetermined concentration of the test solution. Malathion emulsion and pirimicarb wettable powder are diluted with distilled water to prepare a predetermined concentration of the test solution, respectively.
(§2) Myzus persicae (URR-O type) distributed from Chiba University, which were reared for succesive generations, were used as a group of sensitive strains. Myzus persicae resistant to malathion and pirimicarb which were collected from Aburahi Laboratory of Shionogi & Co., Ltd. and reared for succesive generations while selecting those resistant to these drugs were used as a group of resistant strains.
(§3) A polyethylene cup (diameter 6 cm, depth 4 cm) was filled with 0.3 % agar gel and a piece of Chinese cabbage leaf (3x3 cm) was placed on the gel. One apterous adult of Myzus persicae was put on the leaf and allowed to keep at 25 °C for 24 hours to make larviposition. After removal of the adult, 2 ml of the test solution was applied to the foliage under a rotary sprayer; and larvae of Myzus persicae was allowed to keep at 25 °C for 48 hours. Then the mortality of the larvae was determined and the value of LC₅₀ was calculated by the method of Billis. [Bliis, Ann. Appl. Biol.,22, 134;307 (1935)].

[2] = tested on: Myzus persicae (URR-O type), sensitive strains; assay: Foliar spray test on larvae of Myzus persicae, sensitive strain; assay type: in vivo; details: for LC50: read-out: LC₅₀ (ppm) Sensitive Strain
Method: as §1, §2, §3

[3] = 7.8 ppm, larvae, 25 °C, 48 hours after spraying
[4] = 15.6 ppm, larvae, 25 °C, 48 hours after spraying
[5] = 31.3 ppm, larvae, 25 °C, 48 hours after spraying
[6] = 62.5 ppm, larvae, 25 °C, 48 hours after spraying
[7] = 125 ppm, larvae, 25 °C, 48 hours after spraying
[8] = 250 ppm, larvae, 25 °C, 48 hours after spraying
[9] = larvae, 48 hours, ( ) means 95 % confidence limit

Structure (SMILES)	mortality at 7.8 ppm [1, 3]	mortality at 15.6 ppm [1, 4]	mortality at 31.3 ppm [1, 5]	mortality at 62.5 ppm [1, 6]	mortality at 125 ppm [1, 7]	mortality at 250 ppm [1, 8]	LC50 [1, 9]	mortality at 7.8 ppm [2, 3]	mortality at 15.6 ppm [2, 4]	mortality at 31.3 ppm [2, 5]	mortality at 62.5 ppm [2, 6]	mortality at 125 ppm [2, 7]	mortality at 250 ppm [2, 8]	LC50 [2, 9]	LC50 ([1]; 48 h)	LC50 ([2]; 48 h)
N[C@@H](CCSC(F)F)C(=O)O [Compound I ^a, L-difluoromethylhomocysteine]	5%	0%	54.2%	100%	100%	100%	27.1 µg/mL (≈ 146 µM)	0%	8.7%	4.8%	57.1%	100%	100%	52.9 µg/mL (≈ 286 µM)		
Cc1nc(N(C)C)nc(OC(=O)N(C)C)c1C [pirimicarb, reference compound]															> 1920 µg/mL	8.2 µg/mL (≈ 34.4 µM)
CCOC(=O)CC(SP(=S)(OC)OC)C(=O)OCC (stereo not drawn) [malathion, reference compound]															> 2000 µg/mL	136 µg/mL (≈ 412 µM)
